In experiment [1] the test system is Western diet fed Sprague Dawley rats. Nature of the experiment: Hepatic triglyceride (steatosis), Western diet fed rats. The format is in vivo, rat. As to conditions: oral, Day 28. The method, then: A randomized, vehicle-controlled, 8-parallel arm study was conducted in male Sprague-Dawley rats (Charles River (Boston, MA)) to obtain circulating and hepatic TG levels. Standard laboratory conditions were used to house 96 rats (˜200 g); they were double housed and kept under 12:12-hour reverse light-dark schedule (lights off at 8:00 AM). Rats were randomized into chow or Western diet groups and dose groups upon arrival and were given a 14-day lead-in period on either standard rat chow or Western diet prior to the start of the study. Standard Laboratory Rodent chow diet, 5053, was from LabDiet (PMI, St Louis, Missouri). Western Diet, D12079Bi, was from Research Diets (New Brunswick, New Jersey).
Starting on Day 1 of the study, rats were dosed orally (10 mL/kg) with either vehicle control (0.5% MC (wt/volume %) in dionized water), low or high doses of Compound A (1 mg/kg or 10 mg/kg QD, respectively), low or high doses of Compound D (5 mg/kg or 30 mg/kg BID respectively), or co-administration of low doses (Compound A at 1 mg/kg QD and Compound D at 5 mg/kg BID), or co-administration of high doses (Compound A at 10 mg/kg QD and Compound D at 30 mg/kg BID)
On the last day of the study (Day 28), rats were sacrificed for tissue collection after a 4 hour fast, 2 hours post-dose: two hours post-dose, blood for determining plasma analytes was collected via lateral tail vein and then the animals were sacrificed by CO2 asphyxiation. Blood was transferred to BD Microtainer tubes coated with K2EDTA (PN365974), centrifuged at 4° C. and the plasma transferred to a 96-well microtitre plate and stored at −20° C. Livers were rapidly removed, freeze-clamped in a Wollenberg clamp pre-cooled in liquid N2 individually wrapped in aluminum foil and subsequently stored at −80° C.
Tissue pulverization: Frozen livers were rapidly pulverized on an aluminum block cooled in liquid N2, ensuring the tissue remained frozen throughout the pulverization. The pulverized tissues were transferred and stored in 7 mL polypropylene conical tubes at −80° C. until analysis.
Extraction for hepatic triglyceride: Approximately 50 to 100 mg of pulverized tissue was added to a 2 mL lysing matrix D tube (MP Bio) containing 800 μL ice cold 1:1 CHCl3:MEOH. Samples were immediately extracted at 4° C. using Qiagen Tissue Lyser II (Qiagen Cat No. 85300) for 4 minutes at 30 Hz. The homogenate was then transferred to 13×100 mm glass tubes and placed on ice. The lysis tubes were then rinsed with 800 μL of 1:1 CHCl3:MeOH, vortexed for 30 seconds and added to the 13×100 mm glass tubes. While on ice, 2.4 ml of 100% CHCl3 was added to all glass vials to bring the ratio of CHCl3:MeOH to 4:2. Samples were then placed in the −20° C. freezer overnight. […]

Experiment [2] has as its system Ionized calcium binding adaptor molecule 1 (Iba1). The experiment is described as follows: Hepatic Iba1 staining, CDAHFD fed rats. The format is in vivo, rat. As to conditions: twice daily for 6 weeks; Compound A 5 mg/kg, Compound D 30 mg/kg, or co-administration; 12 weeks on CDAHFD. The method, then: A randomized, vehicle-controlled, 5-parallel arm study was conducted in male Wistar-Han rats (Charles River (Boston, MA)) fed a choline-deficient and high fat diet (CDAHFD) (Research diets; A16092003) to identify differences in improvements in markers of hepatic inflammation and fibrosis when administering either Compound A or Compound D alone as monotherapy or in combination. Standard laboratory conditions were used to house 60 rats (˜200 g); they were double housed and kept under 12:12-hour reverse light-dark schedule (lights off at 8:00 AM). Rats were fed choline deficient and high fat diet (CDAHFD) beginning 6-weeks prior to initiation of the study. Rats, randomized into 4 dosing groups (n=12/group), received twice daily administration of vehicle, Compound A (5 mg/kg) monotherapy, Compound D (30 mg/kg) monotherapy, or co-administration Compound A (5 mg/kg) and Compound D (30 mg/kg) for a period of 6-weeks. […] Histology was assessed following 6-weeks of drug administration which corresponded to 12 weeks on the CDAHFD. […]
Following the 12-weeks on CDAHFD, the animals were sacrificed by CO2 asphyxiation. […] A portion of the pulverized liver sample from each animal was processed and analyzed for gene expression markers of fibrogenesis. Rat taqman probes against […]SMA and COL1A1 were all assessed using Actb as housekeeping gene on qPCR. […]

[3] abbreviates: high dose (Compound A 10 mg/kg QD; Compound D 30 mg/kg BID; or both co-administered).
[4] abbreviates: low dose (Compound A 1 mg/kg QD; Compound D 5 mg/kg BID; or both co-administered).

`COc1cc(C(=O)N2CCC3(CC2)CC(=O)c2c(cnn2C(C)C)C3)cc(-c2ccc(C(=O)O)cc2)n1` [Compound A, 4-(4-(1-isopropyl-7-oxo-1,4,6,7-tetrahydrospiro[indazole-5,4′-piperidine]-1′-carbonyl)-6-methoxypyridin-2-yl)benzoic acid]: the figures for the “reduction in steatosis (hepatic triglyceride), relative to vehicle administered Western diet fed rats” value in experiment [1] (setting [3]) and in experiment [1] (setting [4]) were 53% and 36%, respectively. Further, the “reduction of Iba1 staining” value in experiment [2] amounted to 15%.
For `CCOc1cccnc1Oc1cncc(-c2ncc(C(=O)N[C@H]3CCOC3)cn2)c1` [Compound D, (S)-2-(5-((3-ethoxypyridin-2-yl)oxy)pyridin-3-yl)-N-(tetrahydrofuran-3-yl)pyrimidine-5-carboxamide], the “reduction in steatosis (hepatic triglyceride), relative to vehicle administered Western diet fed rats” value in experiment [1] (setting [3]) came to 30%; in experiment [1] (setting [4]), 25%. The “reduction of Iba1 staining” value in experiment [2] is given as “did not alter”.

Values taken from patent US12247022B2, “Combinations for treatment of NASH/NAFLD and related diseases” (Pfizer Inc., priority 2018, dated 2025).
